Experimental data reported in PubChem BioAssay (NCI).
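Assay format: 96-well plates, 48-hour exposure. Abbreviation: GI50, concentration required for 50% inhibition of growth. The concentration for full growth arrest is given as TGI.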

Legend:
Experiment in all cases: DTP human tumour cell line panel, 48 h
[1] = tested on: 786-0 renal
[2] = tested on: A498 renal
[3] = tested on: A549 NSCLC
[4] = tested on: ACHN renal
[5] = tested on: BT-549 breast
[6] = tested on: CAKI-1 renal
[7] = tested on: CCRF-CEM leukemia
[8] = tested on: COLO 205 colon
[9] = tested on: DU-145 prostate
[10] = tested on: EKVX NSCLC
[11] = tested on: HCC-2998 colon
[12] = tested on: HCT-116 colon
[13] = tested on: HCT-15 colon
[14] = tested on: HL-60(TB) leukemia
[15] = tested on: HOP-62 NSCLC
[16] = tested on: HOP-92 NSCLC
[17] = tested on: HS 578T breast
[18] = tested on: HT29 colon
[19] = tested on: IGROV1 ovarian
[20] = tested on: K-562 leukemia
[21] = tested on: KM12 colon
[22] = tested on: LOX IMVI melanoma
[23] = tested on: M14 melanoma
[24] = tested on: MALME-3M melanoma
[25] = tested on: MCF7 breast
[26] = tested on: MDA-MB-231 breast
[27] = tested on: MDA-MB-435
[28] = tested on: MDA-MB-468 breast
[29] = tested on: MOLT-4 leukemia
[30] = tested on: NCI-H226 lung
[31] = tested on: NCI-H23 lung
[32] = tested on: NCI-H460 lung
[33] = tested on: NCI-H522 lung
[34] = tested on: NCI/ADR-RES ovarian
[35] = tested on: OVCAR-3 ovarian
[36] = tested on: OVCAR-4 ovarian
[37] = tested on: OVCAR-5 ovarian
[38] = tested on: OVCAR-8 ovarian
[39] = tested on: PC-3 prostate
[40] = tested on: RPMI-8226 leukemia
[41] = tested on: RXF 393 renal
[42] = tested on: SF-268 CNS
[43] = tested on: SF-295 CNS
[44] = tested on: SF-539 CNS
[45] = tested on: SK-MEL-2 melanoma
[46] = tested on: SK-MEL-28 melanoma
[47] = tested on: SK-MEL-5 melanoma
[48] = tested on: SK-OV-3 ovarian
[49] = tested on: SN12C renal
[50] = tested on: SNB-19 CNS
[51] = tested on: SNB-75 CNS
[52] = tested on: SR leukemia
[53] = tested on: SW-620 colon
[54] = tested on: T-47D breast
[55] = tested on: TK-10 renal
[56] = tested on: U251 CNS
[57] = tested on: UACC-257 melanoma
[58] = tested on: UACC-62 melanoma
[59] = tested on: UO-31 renal

## COc1ccc(C2(SCCNCc3cc(N(C)C)ccn3)c3ccccc3C=Cc3ccccc32)cc1
[1]
  GI50: 873 nM
  TGI: 17200 nM
[2]
  GI50: 11500 nM
  TGI: 24900 nM
[3]
  GI50: 147 nM
  TGI: 16800 nM
[4]
  GI50: 1900 nM
  TGI: 19900 nM
[5]
  GI50: 471 nM
  TGI: 9580 nM
[6]
  GI50: 1330 nM
  TGI: 19200 nM
[7]
  GI50: 106 nM
  TGI: 19300 nM
[8]
  GI50: 169 nM
  TGI: 521 nM
[9]
  GI50: 335 nM
  TGI: 3630 nM
[10]
  GI50: 382 nM
  TGI: 19400 nM
[11]
  GI50: 93.2 nM
  TGI: 527 nM
[12]
  GI50: 40.4 nM
  TGI: 11600 nM
[13]
  GI50: 51 nM
  TGI: 13500 nM
[14]
  GI50: 62.3 nM
  TGI: 13700 nM
[15]
  GI50: 528 nM
  TGI: 17900 nM
[16]
  GI50: 1310 nM
  TGI: 6250 nM
[17]
  GI50: 204 nM
  TGI: 1770 nM
[18]
  GI50: 337 nM
  TGI: 7000 nM
[19]
  GI50: 459 nM
  TGI: 19200 nM
[20]
  GI50: 40.7 nM
  TGI: 17400 nM
[21]
  GI50: 322 nM
  TGI: 11700 nM
[22]
  GI50: 557 nM
  TGI: 12300 nM
[23]
  GI50: 34.7 nM
  TGI: 621 nM
[24]
  GI50: 514 nM
  TGI: 15800 nM
[25]
  GI50: 40 nM
  TGI: 13200 nM
[26]
  GI50: 143 nM
  TGI: 446 nM
[27]
  GI50: 25.3 nM
  TGI: 63.9 nM
[28]
  GI50: 50.9 nM
  TGI: 388 nM
[29]
  GI50: 610 nM
  TGI: 12000 nM
[30]
  GI50: 4800 nM
  TGI: 19200 nM
[31]
  GI50: 463 nM
  TGI: 13900 nM
[32]
  GI50: 281 nM
  TGI: 11200 nM
[33]
  GI50: 90 nM
  TGI: 455 nM
[34]
  GI50: 205 nM
  TGI: 513 nM
[35]
  GI50: 342 nM
  TGI: 12000 nM
[36]
  GI50: 5150 nM
  TGI: 22000 nM
[37]
  GI50: 364 nM
  TGI: 12500 nM
[38]
  GI50: 238 nM
  TGI: 15700 nM
[39]
  GI50: 395 nM
  TGI: 6060 nM
[40]
  GI50: 124 nM
  TGI: > 49000 nM
[41]
  GI50: 283 nM
  TGI: 3390 nM
[42]
  GI50: 717 nM
  TGI: 18500 nM
[43]
  GI50: 268 nM
  TGI: 14200 nM
[44]
  GI50: 227 nM
  TGI: 594 nM
[45]
  GI50: 252 nM
  TGI: 724 nM
[46]
  GI50: 5290 nM
  TGI: 21200 nM
[47]
  GI50: 319 nM
  TGI: 11800 nM
[48]
  GI50: 497 nM
  TGI: 13900 nM
[49]
  GI50: 290 nM
  TGI: 15200 nM
[50]
  GI50: 534 nM
  TGI: 19100 nM
[51]
  GI50: 176 nM
  TGI: 907 nM
[52]
  GI50: 57 nM
  TGI: > 33200 nM
[53]
  GI50: 74.6 nM
  TGI: 12500 nM
[54]
  GI50: 475 nM
  TGI: 18700 nM
[55]
  GI50: 12100 nM
  TGI: 25800 nM
[56]
  GI50: 62 nM
  TGI: 12100 nM
[57]
  GI50: 10800 nM
  TGI: 23900 nM
[58]
  GI50: 460 nM
  TGI: 17700 nM
[59]
  GI50: 1760 nM
  TGI: 17800 nM
